Assay results taken from patent US7319152B2 (Wyeth, priority 2005, dated 2008).
Several values for one entry are separate records, joined by “and”; a condition that tells them apart may be missing. Identical values can stand only once.

Assays:
[1] = test system: rat uterine decidualization; assay: Rat decidualization assay; assay type: in vivo; settings: for Estimated average EC50 for uterine wet weight: ovariectomized Sprague-Dawley rats, s.c., average of dose-response curves
Description: The animals were treated once daily for seven days. […] In all studies, a control group receiving vehicle was included. […] The contralateral horn was not scratched and served as an unstimulated control. Approximately 24 hoursfollowing the final treatment, rats were sacrificed by CO2 asphyxiation and body weight measured. Uteri were removed and trimmed of fat. Decidualized (D-horn) and control (C-horn) uterine horns were weighed separately.
Body weight: Mean total animal body weight (default-kg)
D-horn: Wet weight of decidualized uterine horn (default-kg)
C-horn: Wet weight of control uterine horn (default-kg)
Decidual response: [(D−C)/C]×100%

PR = biological target: T1, PR (Homo sapiens, UniProt P06401); assay: T47D cell alkaline phosphatase assay; assay type: cell-based; settings: for IC50: read-out: Alk. Phos. IC50
T1 construct: alkaline phosphatase activity in T47D cells; endogenous in cells; host or cells: T47D cells
T1 sequence (P06401 1-933): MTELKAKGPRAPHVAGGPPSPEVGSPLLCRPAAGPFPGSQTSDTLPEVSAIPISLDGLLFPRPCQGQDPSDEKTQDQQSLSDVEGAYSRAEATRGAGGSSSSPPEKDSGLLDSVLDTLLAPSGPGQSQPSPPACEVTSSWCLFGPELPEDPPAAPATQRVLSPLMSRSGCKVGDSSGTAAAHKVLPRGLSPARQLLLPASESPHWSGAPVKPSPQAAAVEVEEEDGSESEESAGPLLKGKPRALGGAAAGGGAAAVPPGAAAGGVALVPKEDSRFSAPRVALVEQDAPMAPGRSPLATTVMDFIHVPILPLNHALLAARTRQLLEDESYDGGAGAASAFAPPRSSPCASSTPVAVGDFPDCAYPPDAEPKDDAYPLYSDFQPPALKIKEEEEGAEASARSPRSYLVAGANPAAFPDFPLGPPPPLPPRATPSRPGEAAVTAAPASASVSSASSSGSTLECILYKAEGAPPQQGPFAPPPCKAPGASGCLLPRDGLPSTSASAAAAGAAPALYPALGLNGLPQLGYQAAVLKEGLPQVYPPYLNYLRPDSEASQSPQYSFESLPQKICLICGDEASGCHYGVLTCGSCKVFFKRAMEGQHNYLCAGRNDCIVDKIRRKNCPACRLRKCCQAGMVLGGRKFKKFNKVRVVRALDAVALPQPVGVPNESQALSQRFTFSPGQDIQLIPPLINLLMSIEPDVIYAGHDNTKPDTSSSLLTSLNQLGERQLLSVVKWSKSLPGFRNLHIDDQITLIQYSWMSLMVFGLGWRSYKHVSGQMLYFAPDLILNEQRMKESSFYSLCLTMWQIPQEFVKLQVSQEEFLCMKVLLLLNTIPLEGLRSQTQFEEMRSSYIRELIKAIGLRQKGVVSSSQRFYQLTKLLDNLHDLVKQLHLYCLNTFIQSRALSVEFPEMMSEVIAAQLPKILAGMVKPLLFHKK
Description: (a) Purpose: To identify progestins or antiprogestins by determining a compound's effect on alkaline phosphatase activity in T47D cells. […] Cell Culture and Treatment • Frozen T47D cells were thawed in a 37° C. water bath and diluted to 280,000 cells/ml in culture medium. To each well in a 96-well plate (Falcon, Becton Dickinson Labware), 180 ? L of diluted cell suspension was added. Twenty ? L of reference or test compounds diluted in the culture medium was then added to each well. […] The cells were incubated at 37° C. in a 5% CO2humidified atmosphere for 24 hours. • Note: For high throughput screening, one concentration of each compound was tested at 0.3 mg/ml. […] Alkaline Phosphatase Enzyme Assay • At the end of treatment, the medium was removed from the plate. Fifty ? L of assay buffer I was added to each well. The plates were shaken in a titer plate shaker for 15 minutes. Then 150 ? L of assay buffer II was added to each well. […] Square root-transformed data were used for analysis of variance and nonlinear dose response curve fitting for both agonist and antagonist modes. Huber weighting was used to downweight the effects of outliers. EC50 or IC50 values were calculated from the retransformed values. JMP software (SAS Institute, Inc.) was used for both one-way analysis of variance and non-linear dose response analyses in both single dose and dose response studies.

IC50 (PR) | Compound | other results
– | CC#C[C@]1(O)CC[C@H]2[C@@H]3CCC4=CC(=O)CCC4=C3[C@@H](c3ccc(N(C)C)cc3)C[C@@]21C [RU486] | Estimated IC50 for uterine weight ([1]; ovariectomized rats, p.o., with EC50 dose of progesterone (5.6 mg/kg), individual studies): 0.21 mg/kg, p.o. and 0.14 mg/kg, p.o.
300 nM | CC1(C)CC(=O)c2ccc(-c3ccccc3)cc21 [Example 37, 3,3-dimethyl-5-phenylindan-1-one] | –
349 nM | CC1(C)CC(=O)c2ccc(-c3ccc(Cl)cc3Cl)cc21 [Example 36, 5-(2,4-dichlorophenyl)-3,3-dimethylindan-1-one] | –
632 nM | CC1(C)CC(=O)c2ccc(-c3cc(Cl)ccc3Cl)cc21 [Example 35, 5-(2,5-dichlorophenyl)-3,3-dimethylindan-1-one] | –
– | Cn1c(C#N)ccc1-c1ccc2c(c1)C(C)(C)CC2=O [Example 3, 5-(3,3-dimethyl-1-oxo-2,3-dihydro-1H-inden-5-yl)-1-methyl-1H-pyrrole-2-carbonitrile] | EC50 (PR; T47D cells, agonist mode, read-out: Alk. Phos. EC50): 10 nM
300 nM | Cn1c(C#N)ccc1-c1ccc(C(=O)c2ccccc2)cc1 [Example 11, 5-(4-benzoylphenyl)-1-methyl-1H-pyrrole-2-carbonitrile] | –
100 nM | CC1(C)CC(=O)c2ccc(-c3ccc(F)c(Cl)c3)cc21 [Example 38, 5-(3-chloro-4-fluorophenyl)-3,3-dimethylindan-1-one] | –
– | C#C[C@]1(O)CC[C@H]2[C@@H]3CCC4=CC(=O)CC[C@@H]4[C@H]3C(=C)C[C@@]21CC [3-Ketodesogestrel] | Estimated average EC50 for uterine wet weight [1]: 0.10 mg/kg, s.c.
200 nM | CC1(C)CC(=O)c2ccc(-c3ccc(Cl)cc3)cc21 [Example 21, 5-(4-chlorophenyl)-3,3-dimethylindan-1-one] | –
266 nM | Cn1c(C#N)ccc1-c1ccc(C(=O)c2cccs2)cc1 [Example 10, 1-methyl-5-[4-(thien-2-ylcarbonyl)phenyl]-1H-pyrrole-2-carbonitrile] | –
– | C#C[C@]1(O)CC[C@H]2[C@@H]3CCC4=CC(=O)CC[C@@H]4[C@H]3CC[C@@]21CC [Levonorgestrel] | Estimated average EC50 for uterine wet weight [1]: 0.10 mg/kg, s.c.
27.5 nM | Cn1c(C#N)ccc1-c1ccc2c(c1)CCCC2=O [Example 13, 1-methyl-5-(5-oxo-5,6,7,8-tetrahydronaphthalen-2-yl)-1H-pyrrole-2-carbonitrile] | –
66.3 nM | CC1(C)CC(=O)c2ccc(-c3cccc(Cl)c3)cc21 [Example 28, 5-(3-chlorophenyl)-3,3-dimethylindan-1-one] | –
115 nM | CCC(=O)c1ccc(-c2ccc(C#N)n2C)cc1 [Example 9, 1-methyl-5-(4-propionylphenyl)-1H-pyrrole-2-carbonitrile] | –
225 nM | Cc1cccc(-c2ccc3c(c2)C(C)(C)CC3=O)c1 [Example 29, 3,3-dimethyl-5-(3-methylphenyl)indan-1-one] | –
877 nM | Cc1ccc(-c2ccc3c(c2)C(C)(C)CC3=O)cc1 [Example 26, 3,3-dimethyl-5-(4-methylphenyl)indan-1-one] | –
737 nM | CC1(C)CC(=O)c2ccc(-c3ccccc3Cl)cc21 [Example 32, 5-(2-chlorophenyl)-3,3-dimethylindan-1-one] | –
